From US9440953B2, “Substituted amino triazoles useful as acidic mammalian chitinase inhibitors” (OncoArendi Therapeutics Sp z o.o., priority 2014, dated 2016)

What follows are molecules tested against recombinant human AMCase (Homo sapiens, UniProt Q9BZP6) (assay: Human AMCase Activity Assay). Conditions: recombinant hAMCase, 4-methylumbelliferyl B-D-N,N′-diacetylchitobioside substrate, citrate buffer pH 5.2, 37° C., 60 minutes.
Type: biochemical
Description: Human AMCase Activity Assay
The assay was run in the 96-well plate format, each reaction in the total volume of 100 μL. 4-Methylumbelliferyl B-D-N,N′-diacetylchitobioside hydrate was used as a substrate for the enzyme. Upon hydrolysis by AMCase, the substrate releases 4-methylumbelliferyl (4MU) that, when ionized in basic pH, emits fluorescence at 460 nm.
Briefly, 40 μL of a substrate was added to each well, followed by 10 μL of compound dilution and 50 μL of hAMCase recombinant enzyme solution. […] The fluorescence of the reaction product was measured in Perkin Elmer Envision fluorescent plate reader at an excitation wavelength of 355 nm.

Sequence of recombinant human AMCase (Q9BZP6 22-476): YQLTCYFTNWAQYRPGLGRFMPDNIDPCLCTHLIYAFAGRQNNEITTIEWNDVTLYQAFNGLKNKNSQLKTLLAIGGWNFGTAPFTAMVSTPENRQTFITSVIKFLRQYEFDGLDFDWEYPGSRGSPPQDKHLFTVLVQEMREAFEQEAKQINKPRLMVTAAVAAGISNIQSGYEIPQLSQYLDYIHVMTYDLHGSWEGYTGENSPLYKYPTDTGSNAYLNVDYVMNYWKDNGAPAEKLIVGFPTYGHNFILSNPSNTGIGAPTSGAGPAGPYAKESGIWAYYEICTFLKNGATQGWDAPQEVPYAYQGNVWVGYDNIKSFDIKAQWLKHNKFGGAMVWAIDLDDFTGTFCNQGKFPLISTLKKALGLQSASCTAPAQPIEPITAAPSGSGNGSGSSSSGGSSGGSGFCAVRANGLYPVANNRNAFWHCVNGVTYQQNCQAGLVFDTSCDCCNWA

IC50 [nM] | Compound
100 to 1000 | Nc1n[nH]c(N2CCC(N(CCNC(=O)C(F)(F)F)CCc3ccc(Cl)cc3)CC2)n1 [Example 14, N-(2-((1-(3-amino-1H-1,2,4-triazol-5-yl)piperidin-4-yl)(4-chlorophenethyl)-amino)ethyl)-2,2,2-trifluoroacetamide]
1 to 10 | Nc1n[nH]c(N2CCC(N(CCc3ccc(Br)cc3)Cc3ccc(S(N)(=O)=O)cc3)CC2)n1 [Example 15, 4-(((1-(3-amino-1H-1,2,4-triazol-5-yl)piperidin-4-yl)(4-bromophenethyl)amino)-methyl)benzenesulfonamide]
1 to 10 | CC(=O)NS(=O)(=O)c1ccc(CN(CCc2ccc(Br)cc2)C2CCN(c3nc(N)n[nH]3)CC2)cc1 [Example 16, N-((4-(((1-(3-amino-1H-1,2,4-triazol-5-yl)piperidin-4-yl)(4-bromophenethyl)-amino)methyl)phenyl)sulfonyl)acetamide]
1 to 10 | CC(C)C(=O)NS(=O)(=O)c1ccc(CN(CCc2ccc(Br)cc2)C2CCN(c3nc(N)n[nH]3)CC2)cc1 [Example 17, N-((4-(((1-(3-amino-1H-1,2,4-triazol-5-yl)piperidin-4-yl)(4-bromophenethyl)-amino)methyl)phenyl)sulfonyl)isobutyramide]

The remaining lines, values behind:

Compound | IC50 [nM]
Nc1n[nH]c(N2CCC(N(CCc3ccc(Cl)cc3)Cc3ccccc3C(=O)O)CC2)n1 [Example 2, 2-(((1-(3-amino-1H-1,2,4-triazol-5-yl)piperidin-4-yl)(4-chlorophenethyl)amino-)methyl)benzoic acid] | 100 to 1000
Nc1n[nH]c(N2CCC(N(CCc3ccc(Br)cc3)Cc3cccc(C(=O)O)c3)CC2)n1 [Example 3, 3-(((1-(3-amino-1H-1,2,4-triazol-5-yl)piperidin-4-yl)(4-bromophenethyl)amino)-methyl)benzoic acid] | 1 to 10
Nc1n[nH]c(N2CCC(N(CCc3ccc(Br)cc3)Cc3ccc(C(=O)O)cc3)CC2)n1 [Example 4, 4-(((1-(3-amino-1H-1,2,4-triazol-5-yl)piperidin-4-yl)(4-bromophenethyl)-amino)methyl)benzoic acid] | 1 to 10
Cc1cc(CN(CCc2ccc(Cl)cc2)C2CCN(c3nc(N)n[nH]3)CC2)ccc1C(=O)O [Example 5, 4-(((1-(3-amino-1H-1,2,4-triazol-5-yl)piperidin-4-yl)(4-chlorophenethyl)amino)-methyl)-2-methylbenzoic acid] | 1 to 10
Cc1ccc(CN(CCc2ccc(Cl)cc2)C2CCN(c3nc(N)n[nH]3)CC2)cc1C(=O)O [Example 6, 5-(((1-(3-amino-1H-1,2,4-triazol-5-yl)piperidin-4-yl)(4-chlorophenethyl)-amino)methyl)-2-methylbenzoic acid] | 10 to 100
Nc1n[nH]c(N2CCC(N(CCc3ccc(Cl)cc3)Cc3ccc(Cl)c(C(=O)O)c3)CC2)n1 [Example 7, 5-(((1-(3-amino-1H-1,2,4-triazol-5-yl)piperidin-4-yl)(4-chlorophenethyl)amino)-methyl)-2-chlorobenzoic acid] | 1 to 10
Nc1n[nH]c(N2CCC(N(CCc3ccc(Cl)cc3)Cc3ccc(F)c(C(=O)O)c3)CC2)n1 [Example 8, 5-(((1-(3-amino-1H-1,2,4-triazol-5-yl)piperidin-4-yl)(4-chlorophenethyl)amino)-methyl)-2-fluorobenzoic acid] | 10 to 100
Nc1n[nH]c(N2CCC(N(CCNC(=O)c3ccccc3)CCc3ccc(Cl)cc3)CC2)n1 [Example 9, N-(2-((1-(3-amino-1H-1,2,4-triazol-5-yl)piperidin-4-yl)(4-chlorophenethyl)amino)-ethyl)benzamide] | 10 to 100
CC(C)NC(=O)NCCN(CCc1ccc(Cl)cc1)C1CCN(c2nc(N)n[nH]2)CC1 [Example 12, 1-(2-((1-(3-amino-1H-1,2,4-triazol-5-yl)piperidin-4-yl)(4-chlorophenethyl)-amino)ethyl)-3-isopropylurea] | 100 to 1000
